# Experimental data: patent publication US5932709A (University of Michigan, priority 1997, dated 1999)
# How the values were obtained:
# [1] = Murine P388 leukemia model in vivo; set-up: species or system mouse (B6D2F1); settings: mouse, in vivo, ip; i.p. daily×5
# Protocol: For the B16 melanoma model, the following procedure was used. B6D2F1 mice receive i.p. inocula of B16 murine melanoma brei prepared from B16 tumors growing s.c. in mice (day 0). […] If dosing information for agents is not available, the maximum tolerated dose (MTD) is determined in initial dose finding experiments in non-tumored mice.
# The mean survival times of all groups are calculated, and results are expressed as mean survival of treated mice/mean survival of control mice (T/C)×100%. A T/C value of 150 means that the mice in the treated group lived 50% longer than those of the control group; this is sometimes referred to as the increase in life span or ILS value.
# For the P388 leukemia model, the procedure followed is exactly the same as the aforementioned B16 model. The tumor inoculum is prepared by removing ascited fluid containing P388 cells from tumored B6D2F1 mice, centrifuging the cells, and then resuspending the leukemia cells in saline. Mice receive 1×10^6 P388 cells i.p. on day 0.
# [2] = system: human prostate tumor xenograft; assay: Human prostate tumor xenograft model; format: in vivo, human tumor in nude mice
# Source text: (§1) For the human lung and prostate tumor xenograft models the following procedure was used. Nude mice were implanted s.c. by trocar with fragments of human lung or prostate carcinomas harvested from s.c. growing tumors in nude mice hosts. When tumors were approximately 5 mm×5 mm in size (usually ten to fourteen days after inoculation), the animals were pair-matched into treatment and control groups. Each group contained 10 tumored mice, each of which was ear-tagged and followed individually throughout the experiment. […] The doses, route of drug administration and schedule were selected as appropriate for the study in question. (See above protocol). […] Topotecan was run as a positive control at its MTD dose on a daily×5 and a daily×1 schedule. Male nude mice were used for both prostate studies.
# (§2) Mice are weighed twice weekly, and tumor measurements were taken by calipers twice weekly, starting on day 1.
# (§3) Some drugs cause tumor shrinkage in the human tumor xenograft models. […] A mean % tumor shrinkage can be calculated from the data from the mice in a group that experienced tumor regressions.
# [3] = system: human lung tumor xenograft; assay: Human lung tumor xenograft model; format: in vivo, human tumor in nude mice
# Source text: as §1, §2, §3
# [4] = Solubility of HAR7 in various solvents and solvent systems; format: physicochemical
# Protocol: In addition to testing for water solubility, one of the analogs of the present invention, HAR7, was tested for solubility in various other solvents and solvent mixtures, to determine the system which provides the greatest solubility for the analog. The results of those solubility experiments are shown below in Table 2:
# The solubility of HAR7 in various solvents and solvent systems was measured using one of two experimental methods, depending on the conditions and solvents used.
# First, an evaporation method was used in which an excess quantity of HAR7 was added to the solvent of choice. The mixture was finely divided using ultrasonic vibration in order to dissolve the material thoroughly. The resulting mixture was filtered and the solution was evaporated to dryness using a rotary evaporator.
# Second, a spectrophotometric method was used in which an excess quantity of HAR7 was added to the solvent of choice. The mixture was finely divided using ultrasonic vibration in order to dissolve the maximum amount of solid. The resulting suspension was filtered through a 0.45 μm nylon filter, and the clear solution was diluted in the same solvent and its concentration was measure spectrophotometrically, based upon an extinction coefficient of 17000 at 258 nm.
compound,measurement,setting,value
"CC[C@@]1(O)C(=O)OCc2c1cc1n(c2=O)Cc2c-1nc1ccccc1c2CO[C@@H]1C=C[C@H](O[C@H]2O[C@H](CO)[C@@H](O)[C@H](O)[C@H]2O)[C@@H](CO)O1 [HAR6, 7-[4-O-(α-D-glucopyranosyl)-2,3-dideoxy-α-D-erythro-hex-2-enopyranosyl]-oxymethylcamptothecin]",MTD,[1],100 mg/kg
"CC[C@@]1(O)C(=O)OCc2c1cc1n(c2=O)Cc2c-1nc1ccccc1c2CO[C@@H]1C=C[C@H](O)[C@@H](CO)O1 [HAR7, 7-[2,3-dideoxy-α-D-erythro-hex-2-enopyranosyl]-oxymethylcamptothecin]",Deaths,[2]; 30 mg/kg × 5 days,0/10
same,Shrink (number of animals),[2]; 30 mg/kg × 5 days,0/10
same,TGI (% Tumor Growth Inhibition Rate),[2]; 30 mg/kg × 5 days,77%
same,TGI (number of animals),[2]; 30 mg/kg × 5 days,10/10
same,Deaths,[2]; 100 mg single ds,0/10
same,Shrink (% Tumor Shrinkage Rate),[2]; 100 mg single ds,20%
same,Shrink (number of animals),[2]; 100 mg single ds,1/10
same,TGI (% Tumor Growth Inhibition Rate),[2]; 100 mg single ds,51%
same,TGI (number of animals),[2]; 100 mg single ds,9/10
same,Deaths,[2]; 200 mg single ds,0/10
same,Shrink (number of animals),[2]; 200 mg single ds,0/10
same,TGI (% Tumor Growth Inhibition Rate),[2]; 200 mg single ds,80%
same,TGI (number of animals),[2]; 200 mg single ds,10/10
same,activity against prostate xenograft model,[2]; in words,outstanding activity
same,"efficacy, single dose","[2]; single dose, in words",significant tumor growth inhibition
same,complete disappearance of tumors (animals),[3]; 30 mg/kg daily×5,2
same,Deaths,[3]; 30 mg/kg × 5 days,0/10
same,Shrink (% Tumor Shrinkage Rate),[3]; 30 mg/kg × 5 days,100%
same,Shrink (number of animals),[3]; 30 mg/kg × 5 days,2/10
same,TGI (% Tumor Growth Inhibition Rate),[3]; 30 mg/kg × 5 days,67%
same,TGI (number of animals),[3]; 30 mg/kg × 5 days,8/10
same,Deaths,[3]; 200 mg single ds,1/10
same,Shrink (% Tumor Shrinkage Rate),[3]; 200 mg single ds,67%
same,Shrink (number of animals),[3]; 200 mg single ds,2/10
same,TGI (% Tumor Growth Inhibition Rate),[3]; 200 mg single ds,64%
same,TGI (number of animals),[3]; 200 mg single ds,7/10
same,activity against lung xenograft model,[3]; in words,outstanding activity
same,"efficacy, single dose","[3]; single dose, in words",significant tumor growth inhibition
same,solubility,"[4]; 0.1 m citrate buffer, aqueous buffer",24 µg/mL
same,solubility,"[4]; 0.2 m acetate buffer, aqueous buffer",23 µg/mL
same,solubility,"[4]; 0.2 m na2hpo4 buffer, aqueous buffer",30 µg/mL
same,solubility,"[4]; 0.2 m nah2po4 buffer, aqueous buffer",32 µg/mL
same,solubility,"[4]; 2 m acetate buffer, aqueous buffer",29 µg/mL
same,solubility,"[4]; 4:1:5 pg/ethanol/dsw, organic solvent or mixture",960 µg/mL
same,solubility,"[4]; 4:1:5 pg/ethanol/saline, organic solvent or mixture",893 µg/mL
same,solubility,"[4]; 4:1:5 pg/ethanol/water, organic solvent or mixture",740 µg/mL
same,solubility,"[4]; 5% ethanol/dsw, organic solvent or mixture",177 µg/mL
same,solubility,"[4]; 5% ethanol/water, organic solvent or mixture",80 µg/mL
same,solubility,"[4]; 10% ethanol/water, organic solvent or mixture",143 µg/mL
same,solubility,"[4]; 20% ethanol/water, organic solvent or mixture",380 µg/mL
same,solubility,"[4]; organic solvent or mixture, PEG 300 (Polyethylene Glycol 300)",> 5000 µg/mL
same,solubility,"[4]; pure ethanol, organic solvent or mixture",1980 µg/mL
